Like-named read-outs stand apart in the source and are kept apart here.
What was measured:
[1] = system: granulocytes; format: in vitro ADME; details: human, 180 min, 10 μM
Protocol: (§1) Granulocytes were obtained from heparinized whole blood using density gradiant centrifugation. Erythrocytes were sedimented on 3% dextran T-500 (Amersham Pharmacia Biotech AB, Uppsala, Sweden). Leukocytes were centrifuged on Ficoll (Amersham Pharmacia Biotech AB, Uppsala, Sweden) for 35 min at 600 g at 20° C. The pellet of granulocytes was cleared from remaining erythrocytes by a brief hypotonic lysis.
7.5×10^6 granulocytes, isolated as described above, were suspended in 3 mL of RPMI 1640 (Institute of Immunology, Croatia) containing 10 μM of tested macrolide. Samples were incubated at 37° C. for 180 min. Following incubation, the samples were centrifuged through the layer of Poly(dimethylsiloxane-co-diphenylsiloxane), dihydroxy terminated-silicone oil (Aldrich Chemical Company, Milwaukee, USA). The pellet was resuspended in 0.5% Triton X-100 (Sigma, St. Louis, USA) in deionized water (MilliQ, Millipore Corporation, Bedford, USA). The suspension was sonicated, proteins were precipitated with acetonitrile, and the concentration of macrolide in the supernatants was determined by liquid chromatography-mass spectrometry (LC-MS).
Intracellular concentrations of the test compounds were calculated from the mean cell number recovered after centrifuging through silicone oil. According to the literature, about 1 million neutrophils is considered to have a volume of 0.24 μL (Vazifeh et al., Antimicrob Agents Chemo. 1997; 41: 2099-2107). To estimate the extent of macrolide accumulation, the intracellular to extracellular concentration ratio (I/E) was calculated, where E (due to a large volume of incubation medium) was taken as constant (10 μM). Results are expressed relative to azithromycin according to the following equation: % of azithromycin uptake =(I/E of a substance/I/E of azithromycin)×100. I/E values obtained for azithromycin were 164±10.

[2] = system: neutrophils; assay: Lung neutrophilia induced by bacterial lipopolysaccharide in male BALB/cJ mice: cells in BALF and lung tissue; format: in vivo; details: 5 mg i.p.; 24 hours after LPS
Protocol: (§2) Male BALB/cJ mice (Iffa Credo, France), with average weight 30 g were randomly grouped (n=7 in testing group, 8 in positive control, 7 in negative control). Mice were administered intraperitoneally (i.p.) a single dose of 5 or 2.5 mg of test compound. Two hours after administration, 2 μg of bacterial lipopolysaccharide (LPS), dissolved in PBS in a volume of 60 μL, was intranasally administered to all experimental groups except the negative control group, which received the same volume (60 μL) of vehicle PBS. Animals were sacrificed approximately 24 hours after application of LPS in order to obtain bronchoalveolar lavage fluid (BALF), which was used to determine concentrations of IL-6 and TNF-α, absolute number of cells, and the percentage of neutrophils in BALF. Results are expressed as percentage of decrease of total cell number, relative number of neutrophils, and TNF-α, and IL-6 concentration in BALF of treated animals compared to positive control (LPS stimulated, but untreated animals).
(§3) Results are expressed as percentage of decrease of total cell number, relative number of neutrophils, and TNF-alpha and IL-6 concentration in BALF of treated animals compared to positive control (LPS stimulated, but untreated animals).
Besides accumulation of inflammatory cells in BALF, the extent and anatomic site of pulmonary inflammation induced by LPS was assessed 24 hours after PBS or LPS exposure. Accumulation of granulocytes and mononuclear cells in peribronchial (PB) and perivascular (PV) lung tissue areas and in alveolar spaces was monitored following sacrifice of the animals.

[3] = system: TNF-α; assay: Lung neutrophilia induced by bacterial lipopolysaccharide in male BALB/cJ mice: TNF-α in BALF; format: in vivo; details: 5 mg i.p.; 24 hours after LPS
Protocol: as §2, §3

[4] = system: IL-6; assay: Lung neutrophilia induced by bacterial lipopolysaccharide in male BALB/cJ mice: IL-6 in BALF; format: in vivo; details: 5 mg i.p.; 24 hours after LPS
Protocol: as §2, §3

[5] = system: IL-2; assay: Inhibition of IL-2 production by PHA-stimulated human PBMC in vitro; format: cell-based; details: Homo sapiens, 72 h, 3 days, read-out: Percentage of inhibition of IL-2 production
Protocol: (§4) Heparinized peripheral blood was obtained from healthy donors, and peripheral blood mononuclear cells (PBMC) were isolated by Histopaque 1077 (Sigma, USA) density centrifugation at 400×g for 30 minutes. Collected PBMC were centrifuged in plasma at 400×g for 10 min, resuspended and washed in RPMI 1640 (Institute of Immunology, Croatia) by centrifugation.
(§5) Peripheral blood mononuclear cells (PBMC), isolated as described above, were seeded in a 48-well plate at a concentration of 1×10^6 cells per well in the RPMI culture medium described above. Cells were stimulated with 10 μg/mL phytohaemagglutinin (PHA) (Sigma, USA) and incubated at 37° C., 5% CO2 in 90% humidity with tested compounds (10 and 50 μM) for 3 days. Cytokine concentrations were determined in supernatants by sandwich ELISA, using capture and detection antibodies (R&D, USA) according to the manufacturer's recommendations.
(§6) Inhibition (as percentage) was calculated using the following formula: % inhibition=(1−concentration of cytokines in sample/concentration of cytokines in positive control)×100.
(§7) The positive control refers to LPS-, PMA- or zymosan-stimulated samples that were not treated with test compounds.

[6] = system: IL-5; assay: Inhibition of IL-5 production by PHA-stimulated human PBMC in vitro; format: cell-based; details: Homo sapiens, 72 h, 3 days, read-out: Percentage of inhibition of IL-5 production
Protocol: as §4, §5, §6, §7

[7] = system: granulocytes; assay: Inhibition of degranulation of granulocytes (free neutrophil elastase activity); format: cell-based, human; details: Homo sapiens, Neutrophil, read-out: Percentage of inhibition of degranulation of granulocytes; for inhibition at 10 µM: compound 10 μM; for inhibition at 50 µM: compound 50 μM
Protocol: as §1
1×10^6 granulocytes, isolated as described above, were resuspended in RPMI-1640 medium (Institute of Immunology, Croatia), and were incubated with 10 or 50 μM of test compound together with cytochalasine B (5 μg/mL) for 2 h at 37° C. Degranulation then was induced by the addition of 0.1 μM fMLP (Sigma, USA) or 0.5 μM A23187 (Calbiochem, USA). The activity of free neutrophil elastase was determined with a chromogenic substrate specific for human neutrophil elastase, such as N-(methoxysuccinyl)-L-alanyl-L-alanyl-L-prolyl-L-valine 4-nitroanilide (Sigma Chemical Company, St Louis, Mo., USA). Elastase activity, as a marker of primary granules, was assessed in supernatant using a spectrophotometer at an absorbance of 405 nm.
Results are expressed as the percent of inhibition of degranulation in unstimulated cells, and in stimulated cells treated with fMLP or A23187.

Structure (SMILES) | Uptake (% azithromycin) [1] [% azithromycin] | % decrease of neutrophils in BALF [2] [%] | % decrease of total cell no. in BALF [2] [%] | Percentage of decrease of TNF-α concentration in BALF [3] [%] | Percentage of decrease of IL-6 concentration in BALF [4] [%] | inhibition at 10 µM [5] [%] | inhibition at 50 µM [5] [%] | inhibition at 10 µM [6] [%] | inhibition at 50 µM [6] [%] | inhibition at 10 µM ([7]; A23187 0.5 μM) [%] | inhibition at 50 µM ([7]; A23187 0.5 μM) [%] | inhibition at 10 µM ([7]; fMLP 0.1 μM) [%] | inhibition at 50 µM ([7]; fMLP 0.1 μM) [%] | intracellular to extracellular concentration ratio (I/E) [1]
CC[C@H]1OC(=O)[C@H](C)[C@@H](O[C@H]2C[C@@](C)(OC)[C@@H](OC(=O)CCN(CC)CC)[C@H](C)O2)[C@H](C)[C@@H](O[C@@H]2O[C@H](C)C[C@H](N(C)C)[C@H]2O)[C@](C)(OC)C[C@@H](C)NC(=O)[C@H](C)[C@@H](O)[C@]1(C)O [Example 3, 4″-O-(3-Diethylamino-Propionyl)-6-O-methyl-8a-aza-8a-homoerythromycin A] | 15 |  |  |  |  |  |  |  |  |  |  |  |  | 
CC[C@H]1OC(=O)[C@H](C)[C@@H](O[C@H]2C[C@@](C)(OC)[C@@H](OC(=O)CCN(CC)CC)[C@H](C)O2)[C@H](C)[C@@H](O[C@@H]2O[C@H](C)C[C@H](N(C)C)[C@H]2O)[C@](C)(OC)C[C@@H](C)C(=O)[C@H](C)[C@H]2NC(=O)O[C@@]21C [Example 9, 11,12-Carbamate-11,12-dideoxy-4″-O-(3-diethylamino-propionyl)-6-O-methyl-erythromycin A] | 412 |  |  |  |  |  |  |  |  |  |  |  |  | 
CC[C@H]1OC(=O)[C@H](C)[C@@H](O[C@H]2C[C@@](C)(OC)[C@@H](OC(=O)CCN(C)C)[C@H](C)O2)[C@H](C)[C@@H](O[C@@H]2O[C@H](C)C[C@H](N(C)C)[C@H]2O)[C@](C)(OC)C[C@@H](C)C(=O)N[C@H](C)[C@@H](O)[C@]1(C)O [Example 12, 4″-O-(3-dimethylamino-propionyl)-6-O-methyl-9a-aza-9a-homoerythromycin A] |  | 46 | 88 | 87 | 45 |  |  |  |  |  |  |  |  | 
CC[C@H]1OC(=O)[C@H](C)[C@@H](O[C@H]2C[C@@](C)(OC)[C@@H](OC(=O)CCN(CC)CC)[C@H](C)O2)[C@H](C)[C@@H](O[C@@H]2O[C@H](C)C[C@H](N(C)C)[C@H]2O)[C@](C)(O)C[C@@H](C)CN(C)[C@H](C)[C@@H](O)[C@]1(C)O [Example 48, 4″-O-(3-diethylamino-propionyl)-azithromycin] | 125 | 66 | 79 | 85 | 9 |  |  |  |  |  |  |  |  | 
CC[C@H]1OC(=O)[C@H](C)C(O[C@H]2C[C@@](C)(OC)[C@@H](OC(=O)CCN(CC)CC)[C@H](C)O2)[C@H](C)[C@@H](O[C@@H]2O[C@H](C)C[C@H](N(C)C)[C@H]2O)[C@](C)(OC)C[C@@H](C)C(=O)[C@H](C)[C@H](O)[C@]1(C)O (stereo partly shown) [Example 49, 4″-O-(3-Diethylamino-propionyl)-6-O-methylerithromycin A] | >600 |  |  |  |  | 51 | 100 | 59 | 81 | 10 | 51 | 47 | 72 | 
CC[C@H]1OC(=O)[C@H](C)[C@@H](O[C@H]2C[C@@](C)(OC)[C@@H](OC(=O)CCN(CC)CC)[C@H](C)O2)[C@H](C)[C@@H](O[C@@H]2O[C@H](C)C[C@H](NC)[C@H]2O)[C@](C)(OC)C[C@@H](C)C(=O)N[C@H](C)[C@@H](O)[C@]1(C)O [Example 54, 3′-N-Demethyl-4″-O-(3-diethylaminopropionyl)-6-O-methyl-9a-aza-9a-homoerythromycin A] |  | 70 | 90 | 100 | 100 |  |  |  |  |  |  |  |  | 
CC[C@H]1OC(=O)[C@H](C)[C@@H](O[C@H]2C[C@@](C)(OC)[C@@H](O)[C@H](C)O2)[C@H](C)[C@@H](O[C@@H]2O[C@H](C)C[C@H](N(C)C)[C@H]2O)[C@](C)(O)C[C@@H](C)CN(C)[C@H](C)[C@@H](O)[C@]1(C)O [azithromycin, reference compound] | 100 | 37 | 77 | 66 | 72 |  |  |  |  |  | 15 |  | 36 | 164±10
CC[C@H]1OC(=O)[C@H](C)[C@@H](O[C@H]2C[C@@](C)(OC)[C@@H](O)[C@H](C)O2)[C@H](C)[C@@H](O[C@@H]2O[C@H](C)C[C@H](N(C)C)[C@H]2O)[C@](C)(OC)C[C@@H](C)C(=O)[C@H](C)[C@@H](O)[C@]1(C)O [clarithromycin, reference compound] |  | 36 | 77 | 78 | 60 | 0 | 3 | 13 | 47 |  |  |  |  | 

— US8080529B2, “Macrolides with anti-inflammatory activity” (Glaxo Group Limited, priority 2005, dated 2011)
